Source: US9868763B2, “Modulators of protease activated receptors” (The University of Queensland, priority 2011, dated 2018)
Blank lines part the entries; values can stand above or below the molecule they belong to.

Tests used:
[1] = tested on: MIN6 beta cells; test: Glucose-stimulated insulin secretion (GSIS); type: cell-based, mouse; conditions: 52 as pre-treatment before 2f-LIGRLO-NH2
Method: Rat pancreas and mouse MIN6 beta cells were cultured in DMEM (25 mM glucose) supplemented with 15% fetal calf serum, 10 U/mL penicillin, 10 U/mL streptomycin, 2 mM L-glutamine and […] 2-mercaptoethanol. MIN6 beta cells were passaged and harvested using non-enzymatic cell dissociation solution (Sigma-Aldrich). Glucose-stimulated insulin secretion (GSIS) was performed as described next. MIN6 beta cells were seeded at 0.8×106 mL in a 96-well plate and cultured for 48 h. Cells were washed twice with glucose-free Krebs buffer (NaCl 119 mM, KCl 4.74 mM, CaCl2 2.54 mM, MgCl2 1.19 mM, KH2PO4 1.19 mM, NaHCO3 25 mM, HEPES (pH 7.4) 10 mM and 0.05% BSA). Cells were pre-treated with compound 52 for 30 min with Krebs buffer supplemented with 2.5 mM glucose. After incubation, cells were washed twice with glucose-free Krebs buffer. Glucose (2.5 mM and 25 mM) and compounds were added at specified concentration and incubated for 1 h. Supernatants were collected and insulin concentrations were determined by ELISA (Abeam).

[2] = molecular target: T1, PAR2 (Mus musculus, UniProt P55086); test: Intracellular calcium mobilization in MIN6 beta cells; type: cell-based; conditions: concentration-dependent
T1 construct: endogenous in cells; host or cells: MIN6 (mouse pancreatic beta cell line)
T1 sequence (P55086 26-399): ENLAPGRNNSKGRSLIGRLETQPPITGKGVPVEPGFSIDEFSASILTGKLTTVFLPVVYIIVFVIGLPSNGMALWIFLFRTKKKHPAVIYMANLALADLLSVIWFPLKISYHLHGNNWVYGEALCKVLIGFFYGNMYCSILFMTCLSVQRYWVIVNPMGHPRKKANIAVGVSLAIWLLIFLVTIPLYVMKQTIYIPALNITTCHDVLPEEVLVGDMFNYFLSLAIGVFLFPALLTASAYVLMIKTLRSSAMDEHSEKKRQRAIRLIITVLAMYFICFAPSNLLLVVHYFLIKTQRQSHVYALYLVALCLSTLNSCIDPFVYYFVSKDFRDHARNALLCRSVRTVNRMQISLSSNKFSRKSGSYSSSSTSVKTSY
Method: Results: Pathogenesis of pancreatic dysfunction is linked to chronic nutritional surplus and elevated fatty acids, so in vivo and in vitro effects of compound 52 were evaluated on rat pancreas and mouse MIN6 beta cells. […] PAR2 agonists and compound 52 were further evaluated in vitro for glucose-stimulated insulin secretion (GSIS) and intracellular calcium mobilization in mouse MIN6 beta cells.

[3] = molecular target: T2, PAR2 (Homo sapiens, UniProt P55085); test: Colonocyte modulation: intracellular calcium mobilization in HT29 cells; type: cell-based; set-up: endogenous in cells; host or cells: HT29 (human colorectal adenocarcinoma); conditions: HT29 colonocytes, 15 min before 2Furoyl-LIGRLO-NH2
T2 sequence (P55085 26-397): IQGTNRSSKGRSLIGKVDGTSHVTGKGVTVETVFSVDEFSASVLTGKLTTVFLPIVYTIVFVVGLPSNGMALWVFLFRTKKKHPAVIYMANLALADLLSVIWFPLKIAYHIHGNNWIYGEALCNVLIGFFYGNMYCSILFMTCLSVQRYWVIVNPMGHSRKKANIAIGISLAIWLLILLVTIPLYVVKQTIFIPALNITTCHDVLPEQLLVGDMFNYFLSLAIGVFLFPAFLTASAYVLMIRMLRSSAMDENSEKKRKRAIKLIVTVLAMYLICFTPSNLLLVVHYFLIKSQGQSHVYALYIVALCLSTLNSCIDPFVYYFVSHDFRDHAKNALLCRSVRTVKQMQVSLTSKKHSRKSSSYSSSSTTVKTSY
Method: Human colorectal adenocarcinoma (HT29) cells were incubated with a calcium binding dye ([…]) buffer for 1 h at 37° C. […] Intracellular calcium mobilization was measured by differences in fluorescence plotted against corresponding antagonist concentrations, enabling the determination of antagonist potency.

[4] = tested on: 2furoyl-LIGRLO-NH2-induced paw oedema; test: PAR2 agonist-induced paw oedema; type: in vivo, Wistar rat; conditions: s.c.; 52 10 mg/kg, ENMD-1068 100 mg/kg; agonist 350 μg/paw
Method: The methods used are based on those previously described (Kelso, E. B., et al. Arthritis Rheum 2007, 56, 765-71; Kelso, E. B., et al. J Pharmacol Exp Ther 2006, 316, 1017-24; and Vergnolle, N. J Immunol 1999, 163, 5064-9). Male Wistar rats (n=3 per group) are used. Briefly, rats are given either 5 or 10 mg/kg of a compound of the present invention (p.o. via gavage in olive oil, approx. 500 μL, weight adjusted). Control animals receive only olive oil (500 μL p.o.). Two hours later, the PAR2 agonist 2-furoyl-LIGRLO (350 μg/paw in saline, 100 μL) is injected into the plantar surface (i.pl.) of the right paw pad using a 30 G needle. The left paw acts as a control, receiving saline only. Paw thickness and width are measured after 30 minutes and hourly using digital calipers (World Precision Instruments, USA) and swelling is calculated in area (mm^2; thickness multiplied by width) and expressed as a percentage change from baseline of each individual paw.
Based on previous methods (Kelso E B et al., J Pharmacol Exp Ther 2006, 316(3):1017-24; Suen J Y et al., Br J Pharmacol 2011, doi: 10.1111/j.1476-5381.2011.01610.x.), PAR2 antagonist 52 (10 mg/kg s.c.; n=4), ENMD-1068 (100 mg/kg s.c.; n=4) or vehicle control (DMSO s.c.; n=2) were administered to male Wistar rats. Baseline paw thickness and width were measured using digital calipers (World Precision Instruments, USA) expressed in area (mm^2; thickness×width). Fifteen minutes later, 2Furoyl-LIGLRO-NH2 (350 μg/paw in 100 μL saline) was injected into of the right hind paw pad (intraplantar, i.pl.). The left hind paw acted as a control, receiving saline only. In a separate experiment, vehicle (500 μL olive oil) versus PAR2 antagonist 52 (10 mg/kg p.o. in 500 μL olive oil) only were administered orally to two groups of rats (4 per group). Two hours later, β-tryptase (human recombinant lung, 20 μg in 100 μL saline) was injected into the right hind paw pad (vehicle in left for control) of all animals in each group. In all experiments, paw swelling was measured and expressed in area (mm^2; thickness×width) and plotted as % change from baseline of each individual paw.

[5] = tested on: human monocyte derived macrophages (HMDMs); test: Palmitic acid stimulation of human monocyte derived macrophages; type: cell-based
Method: To investigate if PAR2 is specifically linked to macrophage inflammation, the effect of palmitic acid on mRNA levels of PARs on human monocyte derived macrophages (HMDMs) was measured (FIG. 12). […] The increase of PAR2 mRNA in HMDM in the presence of palmitic acid was dose-dependent (FIG. 12B). Fold change in PAR2 was calculated relative to untreated sample. FIGS. 12C and D illustrate that palmitic acid stimulates proinflammition cytokines, IL-6 and IL-8, secretion from HMDM. Error bars are means±SEM; *P<0.05, **P<0.01, ***P<0.001.

intracellular calcium release in MIN6 beta cells [2]: activated intracellular calcium release
Molecule: 2f-LIGRLO-NH2 [reference compound]
glucose-stimulated insulin secretion [1]: inhibited glucose stimulated insulin sensitivity

IC50 [3]: 5 mM
Molecule: CC(C)CC(=O)N1CCN(C(=O)CCCCCN)CC1 [ENMD-1068, N1-3-methylbutyryl-N4-6-aminohexanoyl-piperazine, reference compound]
paw oedema induced by 2furoyl-LIGRLO-NH2 [4]: had no effect

Molecule: CCCCCCCCCCCCCCCC(=O)O [palmitic acid]
IL-6 and IL-8 secretion from HMDM [5]: stimulates
increase in mRNA concentrations of PAR2 ([5]; HMDM, concentration dependent, relative to untreated): < 20 fold
